Data published in paper PMC12005307, “A biofilm-targeting lipo-peptoid to treat Pseudomonas aeruginosa and Staphylococcus aureus co-infections” (Biofilm, 2025).
Converted amounts (≈) assume the structure as drawn. Where two headings read alike, the source gives them in different places.

Experiments:
P. aeruginosa LESB58 [1] = test: MIC, broth microdilution; assay type: cell-based; settings: Pseudomonas aeruginosa
Method: (§1) Minimum inhibitory concentrations (MIC) were determined using an adapted broth microdilution method in Greiner bio flat chimney polypropylene 96-well plates. P. aeruginosa was used at 1 × 10^6 CFU/mL and S. aureus at 5 × 10^6 CFU/mL in MHB (Oxoid) and DFG, respectively. A separate polypropylene plate was used to prepare two-fold peptoid dilutions in PBS pH 7.5 (Gibco). Bacterial growth was determined by visible turbidity after incubation at 37 °C for 16 h (S. aureus) or 24 h (P. aeruginosa). MIC values were determined as the lowest concentration of the drug where no bacterial growth was visible. Metabolic activity (color change from blue to pink) was further determined by adding the metabolic dye PrestoBlue™ (Invitrogen) to each well for 30 min as confirmation of visual determination. All tests were performed in triplicate.

S. aureus USA300 LAC [2] = test: MIC, broth microdilution; assay type: cell-based; settings: Staphylococcus aureus, Table S6, antibiotic screen, medium not given
Method: as §1

P. aeruginosa LESB58 [3] = test: Checkerboard titration assay (in vitro synergy); assay type: cell-based, Pseudomonas aeruginosa; settings: DFG; for Fold decrease in TM18 MIC: TM18 in combination with the named antibiotic; for Fold decrease in TM18 MIC / FICI, antibiotic combination with TM18: checkerboard; for Fold decrease in antibiotic MIC: antibiotic in combination with TM18, checkerboard; for FICI, antibiotic combination with TM18: 1 × 10^6 CFU/mL, 37 °C, 16–24 h, >0.5 and <=1 additive
Method: (§2) Each compound was serially diluted in PBS before transferring to a 96-well plate containing 1 × 10^6 CFU/mL P. aeruginosa or S. aureus, respectively, in DFG medium and incubated at 37 °C for 16–24 h. The MIC or combinatorial effect was determined as the lowest concentration with no visible growth and the fractional inhibitory concentration index (FICI) was calculated as [(MICA in combination)/MICA] + [(MICB in combination)/MICB] as previously. FICIs ≤ 0.5 indicate synergy, 0.5–1 indicate additivity and values above 1 indicate indifference or antagonism.

S. aureus USA300 LAC [4] = test: Checkerboard titration assay (in vitro synergy); assay type: cell-based, Staphylococcus aureus; settings: DFG; for Fold decrease in TM18 MIC: TM18 in combination with the named antibiotic; for Fold decrease in TM18 MIC / FICI, antibiotic combination with TM18: checkerboard; for Fold decrease in antibiotic MIC: antibiotic in combination with TM18, checkerboard; for FICI, antibiotic combination with TM18: 1 × 10^6 CFU/mL, 37 °C, 16–24 h, >0.5 and <=1 additive
Method: as §2

S. aureus USA300 LAC [5] = test: Murine skin abscess model, co-infection, S. aureus survivors; assay type: in vivo, Staphylococcus aureus; settings: 5 mg/kg intra-abscess after 1 h, day 3, CFU on selective agar
Method: (§3) The abscess model was performed as described previously for mono-species infections and modified as follows for dual-species infection. P. aeruginosa and S. aureus were grown individually to an OD600 of 1.0 in dYT broth. Bacterial cells were washed twice in PBS pH 7.4 (Gibco) and resuspended to an OD600 of 2.0 for S. aureus (∼2.5 × 10^7) and 1.0 for P. aeruginosa (∼2.5 × 10^7). For co-infections, P. aeruginosa and S. aureus were mixed (1:1) immediately before injecting 50 μL subcutaneously into the right side of the dorsum. TM1, TM14, TM18, or sterile PBS were injected directly into the infected area 1-h post-infection at a concentration of 5 mg/kg which was the highest concentration determined as non-toxic in our murine model (Table S10). The progression of the infection was monitored daily. A caliper was used to measure the abscess lesion size manually. The SilhouetteStar™ 3D wound camera and SilhouetteConnect™ software were used to photograph, measure, and analyze abscess lesion sizes (visible dermonecrosis). The skin abscesses (including accumulated pus) were excised and homogenized in sterile PBS using SPEX®SamplePrep 1600 MiniG™ for 5 min. […]
(§4) In vitro experiments were performed with at least three biological replicates. […] The predicted additive effect (PAE) was determined by calculating the sum of CFU log reduction for each individual treatment. […]

P. aeruginosa LESB58 [6] = test: Murine skin abscess model, co-infection, P. aeruginosa survivors; assay type: in vivo, Pseudomonas aeruginosa; settings: 5 mg/kg intra-abscess after 1 h, day 3, CFU on selective agar
Method: as §3, §4

[7] = system: P. aeruginosa LESB58 and S. aureus USA300 LAC; test: Murine skin abscess model, co-infection, abscess size; assay type: in vivo, Pseudomonas aeruginosa and Staphylococcus aureus; settings: 2.5 × 10^7 CFU of each species s.c., 5 mg/kg of each agent intra-abscess after 1 h
Method: as §3, §4

[8] = Table S6, antibiotic screen, medium not given, read-out: MIC

MIC (P. aeruginosa LESB58 [1]; [8]) [µg/mL] | MIC (S. aureus USA300 LAC [2]) [µg/mL] | Fold decrease in TM18 MIC (P. aeruginosa LESB58 [3]) [fold] | Fold decrease in antibiotic MIC (P. aeruginosa LESB58 [3]) [fold] | Fold decrease in TM18 MIC (S. aureus USA300 LAC [4]) [fold] | Fold decrease in antibiotic MIC (S. aureus USA300 LAC [4]) [fold] | SMILES | FICI, antibiotic combination with TM18 (P. aeruginosa LESB58 [3]) | FICI, antibiotic combination with TM18 (S. aureus USA300 LAC [4]) | MIC (P. aeruginosa LESB58 [1]) [µg/mL] | reduction of S. aureus survivors (S. aureus USA300 LAC [5]) [fold] | reduction of P. aeruginosa survivors (P. aeruginosa LESB58 [6]) [fold] | reduction of abscess sizes ([7]; day 3) [%] | reduction of abscess sizes ([7]; day 3, listed as Meropenem) [%]
12.5 (≈ 22.9 µM) | 31.2 (≈ 57.2 µM) | 2 | 4 | 1 | 1 | CC(C)(O/N=C(\C(=O)N[C@@H]1C(=O)N2C(C(=O)[O-])=C(C[n+]3ccccc3)CS[C@H]12)c1csc(N)n1)C(=O)O [CAZ, ceftazidime] | 0.75 | 1 | – | – | – | – | –
3.13 (≈ 9.45 µM) | 15.6 (≈ 47.2 µM) | 1 | 2 | 4 | 2 | O=C(O)c1cn(C2CC2)c2cc(N3CCNCC3)c(F)cc2c1=O [CIP, ciprofloxacin] | 1 | 0.75 | – | – | – | – | –
7.81 (≈ 16.4 µM) | 0.78 (≈ 1.63 µM) | 1 | 2 | 1 | 2 | CNC(C)C1CCC(N)C(OC2C(N)CC(N)C(OC3OCC(C)(O)C(NC)C3O)C2O)O1 (stereo not shown) [GEN, gentamicin] | 1 | 1 | – | – | – | – | –
1.56 (≈ 3.34 µM) | 0.78 (≈ 1.67 µM) | 2 | 2 | 1 | 1 | NC[C@H]1O[C@H](O[C@H]2[C@H](O)[C@@H](O[C@H]3O[C@H](CO)[C@@H](O)[C@H](N)[C@H]3O)[C@H](N)C[C@@H]2N)[C@H](N)C[C@@H]1O [tobramycin] | 1 | 1 | – | – | – | – | –

The next lines start with the compound.

SMILES | MIC (P. aeruginosa LESB58 [1]; [8]) [µg/mL] | MIC (S. aureus USA300 LAC [2]) [µg/mL] | Fold decrease in TM18 MIC (P. aeruginosa LESB58 [3]) [fold] | Fold decrease in antibiotic MIC (P. aeruginosa LESB58 [3]) [fold] | Fold decrease in TM18 MIC (S. aureus USA300 LAC [4]) [fold] | Fold decrease in antibiotic MIC (S. aureus USA300 LAC [4]) [fold] | FICI, antibiotic combination with TM18 (P. aeruginosa LESB58 [3]) | FICI, antibiotic combination with TM18 (S. aureus USA300 LAC [4]) | MIC (P. aeruginosa LESB58 [1]) [µg/mL] | reduction of S. aureus survivors (S. aureus USA300 LAC [5]) [fold] | reduction of P. aeruginosa survivors (P. aeruginosa LESB58 [6]) [fold] | reduction of abscess sizes ([7]; day 3) [%] | reduction of abscess sizes ([7]; day 3, listed as Meropenem) [%]
CC[C@H]1OC(=O)[C@H](C)[C@@H](O[C@H]2C[C@@](C)(OC)[C@@H](O)[C@H](C)O2)[C@H](C)[C@@H](O[C@@H]2O[C@H](C)C[C@H](N(C)C)[C@H]2O)[C@](C)(O)C[C@@H](C)CN(C)[C@H](C)[C@@H](O)[C@]1(C)O [AZM, azithromycin] | 25 (≈ 33.4 µM) | 125 (≈ 167 µM) | 8 | 2 | 1 | 1 | 0.625 | 1 | – | – | – | – | –
C[C@@H](O)[C@H]1C(=O)N2C(C(=O)O)=C(S[C@@H]3CN[C@H](C(=O)N(C)C)C3)[C@H](C)[C@H]12 [meropenem] | – | 0.78 (≈ 2.03 µM) | 2 | 2 | 2 | 4 | 1 | 0.75 | 1.56 (≈ 4.07 µM) | ~10 | ~100 | 78 | 85
